In US20090197938A1, “Polyphenol Type Compounds, Compositions Containing Same and Use Thereof for Preventing or Treating Diseases Involving Abnormal Cell Proliferation” (Fluofarma, priority 2005, published 2009):

Key:
[1] = tested on: cancer cells; conditions: cited from earlier work
[2] = tested on: cancer cells; assay: Effect on cell proliferation at 24H and 48H; assay type: cell-based; conditions: 24H and 48H (figure)
Text: (§1) FIG. 1 represents the effect of different concentrations of Castaline on apoptosis at 24H and 48 H and cell proliferation at 24H and 48H.
(§2) FIG. 2 represents the effect of different concentrations of Vescalene on apoptosis at 24H and 48 H and cell proliferation at 24H and 48H.
(§3) FIG. 3 represents the effect of different concentrations of Castalagine on apoptosis at 24H and 48H and cell proliferation at 24H and 48H.
(§4) FIG. 4 represents the effect of different concentrations of Acutissimine on apoptosis at 24H and 48H and cell proliferation at 24H and 48H.

[3] = tested on: DNA topoisomerase II; assay: Inhibition of DNA topoisomerase II (decatenation); assay type: biochemical
Text: Inhibition of DNA Topoisomerase II

[4] = tested on: cancer cells; assay: Pro-apoptotic activity (apoptosis at 24H and 48H); assay type: cell-based; conditions: different concentrations, 24H and 48H (figure)
Text: as §1, §2, §3, §4

Inhibition of decatenation (%) ([3]; compound concentration 1 μm)	Inhibition of decatenation (%) ([3]; compound concentration 10 μm)	Substance	proliferation of cancer cells with subtoxic doses (background statement) [1]	effect on cell proliferation with subtoxic doses [2]	pro-apoptotic activity [4]
–	–	acutissimine B	stimulate the proliferation of cancer cells	–	–
–	–	Acutissimine A [reference compound]	stimulate the proliferation of cancer cells	increases cell proliferation	–
–	–	Castalagine [reference compound]	stimulate the proliferation of cancer cells	increases cell proliferation	–
–	–	vescalagine	stimulate the proliferation of cancer cells	–	–
–	–	epiacutissamine B	stimulate the proliferation of cancer cells	–	–
–	–	epiacutissamine A	stimulate the proliferation of cancer cells	–	–
87.9	67.0	Castaline	–	does not increase cell proliferation in a noteworthy manner	has a pro-apototic activity
78.8	97.3	Vescalene	–	does not increase cell proliferation in a noteworthy manner	has a pro-apoptotic activity

Substance	Inhibition of decatenation (%) ([3]; compound concentration 1 μm)	Inhibition of decatenation (%) ([3]; compound concentration 10 μm)	proliferation of cancer cells with subtoxic doses (background statement) [1]	effect on cell proliferation with subtoxic doses [2]	pro-apoptotic activity [4]
Vescaline	95.5	100	–	–	–
